In patent US20070117770A1, “Human ribosomal DNA (rDNA) and ribosomal RNA (rRNA) nucleic acids and uses thereof” (Cylene Pharmaceuticals, Inc., priority 2005, published 2007) one finds concentration that significantly reduced DNA synthesis and remaining activity data, which are given here for two compounds.

One assay relates to HCT116 cells. The assay is described as follows: DNA synthesis (BrdU-ELISA). It counts as cell-based. The settings on record: for A-1 a concentration at which many of the cells were dead. As to the method:
Effects of compound A-1 and compound B-1 on DNA synthesis, RNA synthesis and protein synthesis were determined in HCT116 cells. HCT116 cells were plated overnight at 100,000 cells per mL. Next day cells were treated with increasing amounts of either compound A-1 or compound B-1 followed by one hour incubation with BrdU label (from a BrdU Cell proliferation Assay Kit, Calbiochem) to monitor DNA synthesis; […] of ^3H-uridine to monitor total RNA synthesis; […] of ^3H-methionine to monitor protein synthesis or plain media to monitor RNA Polymerase II-dependent RNA synthesis. DNA synthesis was assessed using a BrdU-ELISA (BrdU Cell proliferation Assay Kit, Calbiochem). To measure total RNA synthesis, total RNA from treated cells was isolated with a RNease kit (QIAGEN), levels of total RNA were assessed with Ribogreen reagent (Invitrogen) and the newly synthesized tritiated RNA was measured in a scintillation Counter (Perkin Elmer). To measure effects on protein synthesis, cells were lysed in a RIPA buffer, and total protein was precipitated with 10% TCA on a glass-filters. Newly synthesized tritiated protein was measured in a scintillation Counter (Perkin Elmer). Effects of drugs on […] RNA synthesis were assessed by monitoring levels of a c-myc mRNA, which has a relatively short half-life of approximately 30 minutes, by Taqman qRT-PCR (ABI).

A further assay concerns the target TrkB(h) (Homo sapiens, UniProt Q16620). The assay is described as follows: Protein kinase inhibition assay. It counts as biochemical. The settings on record: read-out: percent residual activity of TrkB(h). How it is done:
(§1) Certain compounds were tested for activity in protein kinase inhibition assays. All substrates were dissolved and diluted to working stocks in de-ionized water, apart from histone H1 (10× working stock in 20 mM MOPS pH 7.0), PDKtide (10× working stock in 50 mM Tris pH 7.0) ATF2 (which is typically stored at a 20× working stock in 50 mM Tris pH 7.5, 150 mM NaCl, 0.1 mM EGTA, 0.03% Brij-35, 50% glycerol, 1 mM benzamidine, 0.2 mM PMSF and 0.1% R-mercaptoethanol), KKLNRTLSFAEPG (SEQ ID NO:203) and RRRLSFAEPG (SEQ ID NO:204) (50 mM HEPES pH 7.4) and GGEEEEYFELVKKKK (SEQ ID NO:205) (20 mM MOPS pH 7.0). All kinases were pre-diluted to a 10× working concentration prior to addition into the assay. The composition of the dilution buffer for each kinase is detailed below.
(§2) In a final reaction volume of 25 μl, TrkB (h) (5-10 mU) is incubated with 8 mM MOPS pH 7.0, 0.2 mM EDTA, 0.1 mg/ml poly(Glu, Tyr) 4:1, 10 mM MgAcetate and [gamma-33P-ATP] (specific activity approx. 500 cpm/pmol, concentration as required). The reaction is initiated by the addition of the MgATP mix. After incubation for 40 minutes at room temperature, the reaction is stopped by the addition of 5 μl of a 3% phosphoric acid solution. 10 μl of the reaction is then spotted onto a Filtermat A and washed three times for 5 minutes in 75 mM phosphoric acid and once in methanol prior to drying and scintillation counting.

The target in another assay is Flt1(h) (Homo sapiens, UniProt P17948). The assay is described as follows: Protein kinase inhibition assay. The settings on record: read-out: percent residual activity of Flt1(h). It counts as biochemical. As to the method:
as §1
as §2, with “Flt1” for “TrkB”, “250 μM KKKSPGEYVNIEFG (SEQ ID NO:207),” for “0.1 mg/ml poly(Glu, Tyr) 4:1,”, “P30 filtermat” for “Filtermat A”

Another assay deals with MSK1(h) (Homo sapiens, UniProt O75582). The assay is described as follows: Protein kinase inhibition assay. The settings on record: read-out: percent residual activity of MSK1(h). It counts as biochemical. How it is done: as §1
MSK1(h), sequence (O75582 whole entry): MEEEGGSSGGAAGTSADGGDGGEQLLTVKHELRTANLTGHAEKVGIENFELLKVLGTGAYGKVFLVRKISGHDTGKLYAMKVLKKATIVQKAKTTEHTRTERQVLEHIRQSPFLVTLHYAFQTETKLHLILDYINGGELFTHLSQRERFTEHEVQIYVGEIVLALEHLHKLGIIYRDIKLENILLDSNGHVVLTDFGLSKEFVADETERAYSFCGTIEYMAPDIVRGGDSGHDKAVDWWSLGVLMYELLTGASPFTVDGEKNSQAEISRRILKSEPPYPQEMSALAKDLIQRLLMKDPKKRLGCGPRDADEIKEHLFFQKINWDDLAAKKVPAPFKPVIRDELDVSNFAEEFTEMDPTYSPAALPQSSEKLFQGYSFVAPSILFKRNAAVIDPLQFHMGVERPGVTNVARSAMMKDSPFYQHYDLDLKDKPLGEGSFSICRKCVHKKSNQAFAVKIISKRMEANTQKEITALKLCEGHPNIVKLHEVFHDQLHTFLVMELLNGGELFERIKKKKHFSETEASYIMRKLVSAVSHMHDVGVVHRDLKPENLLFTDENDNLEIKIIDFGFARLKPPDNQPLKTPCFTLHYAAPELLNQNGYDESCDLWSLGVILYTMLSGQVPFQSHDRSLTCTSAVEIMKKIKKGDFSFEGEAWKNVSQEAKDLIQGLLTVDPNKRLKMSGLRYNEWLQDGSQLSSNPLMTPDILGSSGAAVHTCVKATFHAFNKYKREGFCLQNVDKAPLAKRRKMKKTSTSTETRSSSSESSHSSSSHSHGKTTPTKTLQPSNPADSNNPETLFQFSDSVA
as §2, with “MSK1” for “TrkB”, “30 μM GRPRTSSFAEGKK (SEQ ID NO:220),” for “0.1 mg/ml poly(Glu, Tyr) 4:1,”, “P30 filtermat” for “Filtermat A”

The target of a further assay is EGFR(h) (Homo sapiens, UniProt P00533). The assay is described as follows: Protein kinase inhibition assay. It counts as biochemical. The settings on record: read-out: percent residual activity of EGFR(h). As to the method:
as §1
as §2, with “EGFR” for “TrkB”, “EDTA, 10 mM MnCl2,” for “EDTA,”

The target in another assay is PKCε(h) (Homo sapiens, UniProt Q02156). Put plainly: Protein kinase inhibition assay. It counts as biochemical. The settings on record: read-out: percent residual activity of PKCε(h). How it is done:
as §1
In a final reaction volume of 25 μl, PKCε (h) (5-10 mU) is incubated with 20 mM HEPES pH 7.4, 0.03% Triton X-100, 0.1 mg/ml phosphatidylserine, 10 μg/ml diacylglycerol, 50 μM ERMRPRKRQGSVRRRV (SEQ ID NO:224), 10 mM MgAcetate and [gamma-33P-ATP] (specific activity approx. 500 cpm/pmol, concentration as required). The reaction is initiated by the addition of the MgATP mix. After incubation for 40 minutes at room temperature, the reaction is stopped by the addition of 5 pi of a 3% phosphoric acid solution. […]

EGFR(h), sequence (P00533 25-1210): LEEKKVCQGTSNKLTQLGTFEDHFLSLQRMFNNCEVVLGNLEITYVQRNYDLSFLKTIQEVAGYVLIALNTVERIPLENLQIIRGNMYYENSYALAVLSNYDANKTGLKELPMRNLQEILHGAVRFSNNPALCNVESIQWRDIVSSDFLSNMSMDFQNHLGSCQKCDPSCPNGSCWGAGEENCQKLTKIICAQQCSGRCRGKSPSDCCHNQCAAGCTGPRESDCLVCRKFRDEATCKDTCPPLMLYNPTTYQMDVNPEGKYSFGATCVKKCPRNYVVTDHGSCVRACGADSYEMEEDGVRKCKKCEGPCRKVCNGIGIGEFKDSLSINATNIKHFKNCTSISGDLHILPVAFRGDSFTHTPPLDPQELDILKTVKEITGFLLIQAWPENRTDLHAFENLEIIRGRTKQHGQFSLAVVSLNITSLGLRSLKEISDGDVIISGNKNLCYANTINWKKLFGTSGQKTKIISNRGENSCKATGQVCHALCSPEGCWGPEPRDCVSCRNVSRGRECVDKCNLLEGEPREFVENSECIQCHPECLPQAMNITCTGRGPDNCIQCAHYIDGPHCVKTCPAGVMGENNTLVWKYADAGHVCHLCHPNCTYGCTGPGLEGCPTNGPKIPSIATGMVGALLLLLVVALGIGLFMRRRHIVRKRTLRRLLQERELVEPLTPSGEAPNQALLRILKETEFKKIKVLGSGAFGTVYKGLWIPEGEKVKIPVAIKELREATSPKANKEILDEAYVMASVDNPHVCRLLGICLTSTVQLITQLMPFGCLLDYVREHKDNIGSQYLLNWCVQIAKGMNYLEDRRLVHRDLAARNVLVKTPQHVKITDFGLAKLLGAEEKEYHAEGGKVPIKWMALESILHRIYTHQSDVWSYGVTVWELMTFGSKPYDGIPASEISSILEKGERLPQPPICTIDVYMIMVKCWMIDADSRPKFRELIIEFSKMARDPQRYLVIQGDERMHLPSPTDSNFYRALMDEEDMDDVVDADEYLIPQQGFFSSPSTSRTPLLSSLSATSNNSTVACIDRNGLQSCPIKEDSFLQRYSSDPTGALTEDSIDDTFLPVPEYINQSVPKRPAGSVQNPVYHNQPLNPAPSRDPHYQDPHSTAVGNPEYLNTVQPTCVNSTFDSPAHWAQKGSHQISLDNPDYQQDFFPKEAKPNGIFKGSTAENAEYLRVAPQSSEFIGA
TrkB(h), sequence (Q16620 32-822): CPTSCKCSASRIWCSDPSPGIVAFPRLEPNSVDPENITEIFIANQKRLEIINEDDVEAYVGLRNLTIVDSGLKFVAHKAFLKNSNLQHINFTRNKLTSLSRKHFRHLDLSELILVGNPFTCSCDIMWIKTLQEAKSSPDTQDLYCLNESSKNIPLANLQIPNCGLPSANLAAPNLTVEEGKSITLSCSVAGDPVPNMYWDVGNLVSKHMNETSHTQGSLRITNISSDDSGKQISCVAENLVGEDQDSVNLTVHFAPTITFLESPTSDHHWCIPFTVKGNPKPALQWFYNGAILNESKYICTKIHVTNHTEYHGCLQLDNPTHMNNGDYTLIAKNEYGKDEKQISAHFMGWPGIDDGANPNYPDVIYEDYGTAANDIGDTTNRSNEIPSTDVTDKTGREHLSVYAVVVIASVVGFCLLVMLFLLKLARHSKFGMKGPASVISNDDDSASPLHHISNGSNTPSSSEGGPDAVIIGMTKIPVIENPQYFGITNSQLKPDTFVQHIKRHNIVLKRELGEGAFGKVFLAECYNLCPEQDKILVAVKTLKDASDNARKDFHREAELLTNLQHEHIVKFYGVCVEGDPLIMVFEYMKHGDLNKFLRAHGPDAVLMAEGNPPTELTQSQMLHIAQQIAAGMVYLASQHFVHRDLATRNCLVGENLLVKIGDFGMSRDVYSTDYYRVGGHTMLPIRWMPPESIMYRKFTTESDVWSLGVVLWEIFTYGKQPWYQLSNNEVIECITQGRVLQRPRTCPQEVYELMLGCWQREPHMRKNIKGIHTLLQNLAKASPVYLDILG
Flt1(h), sequence (P17948 27-1338): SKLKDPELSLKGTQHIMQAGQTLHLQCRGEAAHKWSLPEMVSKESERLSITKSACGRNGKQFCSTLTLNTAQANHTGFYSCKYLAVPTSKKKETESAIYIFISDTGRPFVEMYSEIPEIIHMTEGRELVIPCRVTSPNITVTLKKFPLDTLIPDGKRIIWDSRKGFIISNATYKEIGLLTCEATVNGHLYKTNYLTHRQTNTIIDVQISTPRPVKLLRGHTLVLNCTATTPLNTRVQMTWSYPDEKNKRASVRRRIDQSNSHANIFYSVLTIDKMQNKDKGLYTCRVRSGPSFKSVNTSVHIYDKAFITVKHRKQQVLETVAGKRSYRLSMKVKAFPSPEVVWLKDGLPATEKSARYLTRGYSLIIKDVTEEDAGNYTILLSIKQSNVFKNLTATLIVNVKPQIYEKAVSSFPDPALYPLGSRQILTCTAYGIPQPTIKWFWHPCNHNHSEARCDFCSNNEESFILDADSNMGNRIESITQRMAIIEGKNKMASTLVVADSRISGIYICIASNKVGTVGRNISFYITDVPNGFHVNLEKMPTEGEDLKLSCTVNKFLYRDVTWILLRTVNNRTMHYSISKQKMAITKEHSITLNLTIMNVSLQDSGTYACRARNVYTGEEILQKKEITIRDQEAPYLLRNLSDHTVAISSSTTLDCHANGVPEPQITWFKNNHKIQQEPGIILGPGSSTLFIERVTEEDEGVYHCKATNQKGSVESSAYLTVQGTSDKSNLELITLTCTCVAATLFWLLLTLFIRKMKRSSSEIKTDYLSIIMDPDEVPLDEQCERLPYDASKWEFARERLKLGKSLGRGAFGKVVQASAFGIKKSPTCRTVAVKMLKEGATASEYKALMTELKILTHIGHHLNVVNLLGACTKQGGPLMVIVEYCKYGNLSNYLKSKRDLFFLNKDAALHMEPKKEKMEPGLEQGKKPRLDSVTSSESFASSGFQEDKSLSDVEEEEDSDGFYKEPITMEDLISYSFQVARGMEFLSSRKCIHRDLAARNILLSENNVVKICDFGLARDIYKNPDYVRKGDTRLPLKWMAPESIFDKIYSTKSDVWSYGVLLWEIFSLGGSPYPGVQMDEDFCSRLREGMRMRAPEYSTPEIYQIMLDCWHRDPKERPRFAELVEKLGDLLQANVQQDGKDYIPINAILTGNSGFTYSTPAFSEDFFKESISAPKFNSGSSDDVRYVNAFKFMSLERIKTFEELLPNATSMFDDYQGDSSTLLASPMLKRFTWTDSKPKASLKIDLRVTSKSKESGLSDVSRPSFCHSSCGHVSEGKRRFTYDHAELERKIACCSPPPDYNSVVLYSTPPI
PKCε(h), sequence (Q02156 whole entry): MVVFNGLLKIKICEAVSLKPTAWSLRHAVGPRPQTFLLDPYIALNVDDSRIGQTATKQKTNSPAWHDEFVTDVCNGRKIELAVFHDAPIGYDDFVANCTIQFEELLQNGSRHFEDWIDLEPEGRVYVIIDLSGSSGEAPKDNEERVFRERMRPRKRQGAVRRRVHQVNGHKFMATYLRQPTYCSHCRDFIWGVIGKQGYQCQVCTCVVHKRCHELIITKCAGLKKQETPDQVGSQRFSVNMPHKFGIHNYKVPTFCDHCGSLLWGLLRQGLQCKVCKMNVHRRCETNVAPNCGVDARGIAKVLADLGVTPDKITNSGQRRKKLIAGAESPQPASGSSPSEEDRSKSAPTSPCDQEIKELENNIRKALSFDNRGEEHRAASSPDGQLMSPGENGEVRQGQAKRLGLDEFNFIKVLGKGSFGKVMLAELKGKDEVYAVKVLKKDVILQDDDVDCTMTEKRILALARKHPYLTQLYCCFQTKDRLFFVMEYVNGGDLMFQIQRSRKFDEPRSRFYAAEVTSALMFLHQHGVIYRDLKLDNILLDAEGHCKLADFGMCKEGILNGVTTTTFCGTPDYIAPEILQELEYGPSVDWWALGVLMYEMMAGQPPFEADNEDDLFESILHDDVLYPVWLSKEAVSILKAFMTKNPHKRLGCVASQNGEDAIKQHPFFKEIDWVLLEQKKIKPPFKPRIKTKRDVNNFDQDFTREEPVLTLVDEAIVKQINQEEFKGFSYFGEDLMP

Compound `CN1CCCC1CCNC(=O)c1cn2c3c(c(N4CCC(c5cnccn5)C4)c(F)cc3c1=O)Oc1cc3ccccc3cc1-2` (stereo not drawn) [Compound A-1] returned a concentration that significantly reduced DNA synthesis in the assay on HCT116 cells of 10 µM. Besides, the remaining activity at 2.5 µM on TrkB(h) was 44%; on Flt1(h), 78%; on MSK1(h), 61%; at EGFR(h), 122%; on PKCε(h), 99%.

In the assay with HCT116 cells, `CC(=O)N1CCN(c2ccc3c(=O)c(C(=O)NCCN4CCCC4)c4n(C)c5ccccc5n4c3n2)CC1` [Compound B-1] displayed a concentration that significantly reduced DNA synthesis of 30 µM. In addition, the remaining activity at 2.5 µM was 118% on TrkB(h); 106% on Flt1(h); 99% at MSK1(h); 117% at EGFR(h); 109% at PKCε(h).
